# Patent US10988478B1, “Pyrazolo[1,5a]pyrimidine derivatives as IRAK4 modulators” (Genentech, Inc., priority 2015, dated 2021)
# Target: human IRAK4 (Homo sapiens (Human), UniProt Q9NWZ3)
# Test: IRAK4 kinase inhibition, Transcreener fluorescence polarization ADP assay
# Format: biochemical
# Conditions: recombinant full-length His6-IRAK4; 125 uM ATP; 90 min; Ki computed using ATP Km 642 uM
# Protocol: Compounds were assayed for inhibition of human IRAK4 and IRAK1 catalytic activity using recombinant enzyme produced from insect cells. Full-length IRAK4 protein, carrying an N-terminal His6-Tag, was obtained from Life Technologies (Carlsbad, Calif., USA). The IRAK1 construct was produced internally and was comprised of IRAK1 residues Arg194 to Ser712, preceded by an NH2-terminal His6 tag and the coding sequence for glutathione-S-transferase.
# Sequence of human IRAK4 (Q9NWZ3 whole entry): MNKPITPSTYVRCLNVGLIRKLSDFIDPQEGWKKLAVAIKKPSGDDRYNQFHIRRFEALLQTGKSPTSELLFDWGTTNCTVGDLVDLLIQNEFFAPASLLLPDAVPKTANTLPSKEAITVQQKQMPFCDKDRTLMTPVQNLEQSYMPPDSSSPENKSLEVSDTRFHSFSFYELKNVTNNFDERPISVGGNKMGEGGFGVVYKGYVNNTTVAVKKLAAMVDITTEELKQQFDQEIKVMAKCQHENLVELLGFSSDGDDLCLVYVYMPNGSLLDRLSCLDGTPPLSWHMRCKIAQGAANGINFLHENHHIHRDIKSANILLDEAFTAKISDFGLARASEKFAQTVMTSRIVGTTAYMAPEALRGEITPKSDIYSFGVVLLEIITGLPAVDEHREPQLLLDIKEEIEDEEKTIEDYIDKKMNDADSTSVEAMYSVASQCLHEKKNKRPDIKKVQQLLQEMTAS
row,SMILES,Ki [nM]
1,"CC[C@]1(C)Cc2cc(NC(=O)c3cnn4cccnc34)c(N3CCOCC3)cc2O1 (single isomer, unassigned) [Example 97]",7.2
2,"CC(C)(O)[C@H](F)CN1Cc2cc(NC(=O)c3cnn4cccnc34)c(N3CCC([C@H](O)C(F)(F)F)CC3)cc2C1=O (single isomer, unassigned) [Example 259]",2
3,"O=C(Nc1cc2c(cc1N1CCOCC1)C(=O)N(C1CCOC1)C2)c1cnn2cccnc12 (single isomer, unassigned) [Example 275, N-(6-morpholino-1-oxo-2-(tetrahydrofuran-3-yl)isoindolin-5-yl)pyrazolo[1,5-a]pyrimidine-3-carboxamide]",34
4,"O=C(Nc1cc2c(cc1N1CCOCC1)C(=O)N(CC1CCCCO1)C2)c1cnn2cccnc12 (single isomer, unassigned) [Example 278, N-(6-morpholino-1-oxo-2-((tetrahydro-2H-pyran-2-yl)methyl)isoindolin-5-yl)pyrazolo[1,5-a]pyrimidine-3-carboxamide]",4
5,"CC(C)(O)[C@H](F)CN1Cc2cc(NC(=O)c3cnn4cccnc34)c(N3CCC([C@@H](O)C(F)F)CC3)cc2C1=O (single isomer, unassigned) [Example 283]",2
6,"CC1(CO)Cc2cc(NC(=O)c3cnn4cccnc34)c(N3CCC(n4ccnc4)CC3)cc2O1 (single isomer, unassigned) [Example 345, N-(6-(4-(1H-imidazol-1-yl)piperidin-1-yl)-2-(hydroxymethyl)-2-methyl-2,3-dihydrobenzofuran-5-yl)pyrazolo[1,5-a]pyrimidine-3-carboxamide]",4
7,"C[C@]1(CO)Cc2cc(NC(=O)c3cnn4cccnc34)c(N3CCC4(CC3)CNC(=O)C4)cc2O1 (single isomer, unassigned) [Example 417]",3.6
8,"C[C@]1(CO)Cc2cc(NC(=O)c3cnn4cccnc34)c(N3Cc4cccnc4C3)cc2O1 (single isomer, unassigned) [Example 419]",9
9,"C[C@@]1(CO)CCc2cc(NC(=O)c3cnn4cccnc34)c(N3CCOCC3)cc2O1 (single isomer, unassigned) [Example 433]",14
10,"C[C@]1(CO)CCc2cc(NC(=O)c3cnn4cccnc34)c(N3CCOCC3)cc2O1 (single isomer, unassigned) [Example 437]",14
11,"O=C(Nc1cc2c(cc1N1CCOCC1)C(=O)N(CC1CCOC1)C2)c1cnn2cccnc12 (single isomer, unassigned) [Example 555]",3.8
12,"CC(CC(C)(C)O)N1Cc2cc(NC(=O)c3cnn4cccnc34)c(N3CCOCC3)cc2C1=O (stereo in doubt) [Example 545, N-[2-[(1R)-3-hydroxy-1,3-dimethyl-butyl]-6-morpholino-1-oxo-isoindolin-5-yl]pyrazolo[1,5-a]pyrimidine-3-carboxamide]",5.9
13,"O=C(Nc1cc2c(cc1N1CCOCC1)C(=O)N(C[C@@H]1CCC[C@H]1O)C2)c1cnn2cccnc12 (stereo in doubt) [Example 549, N-[2-[[(1S,2R)-2-hydroxycyclopentyl]methyl]-6-morpholino-1-oxo-isoindolin-5-yl]pyrazolo[1,5-a]pyrimidine-3-carboxamide]",8.1
14,"O=C(Nc1cc2c(cc1N1CCOCC1)C(=O)N(C[C@H]1CCC[C@@H]1O)C2)c1cnn2cccnc12 (stereo in doubt) [Example 550, N-[2-[[(1R,2S)-2-hydroxycyclopentyl]methyl]-6-morpholino-1-oxo-isoindolin-5-yl]pyrazolo[1,5-a]pyrimidine-3-carboxamide]",2.1
15,"O=C(Nc1cc2c(cc1N1CCC(CO)CC1)OCCN2)c1cnn2cccnc12 [Example 1, N-(7-(4-(Hydroxymethyl)piperidin-1-yl)-3,4-dihydro-2H-benzo[b][1,4]oxazin-6-yl)pyrazolo[1,5-a]pyrimidine-3-carboxamide]",4.7
16,"O=C1COc2cc(N3CCC(CO)CC3)c(NC(=O)c3cnn4cccnc34)cc2N1 [Example 2, N-(7-(4-(Hydroxymethyl)piperidin-1-yl)-3-oxo-3,4-dihydro-2H-benzo[b][1,4]oxazin-6-yl)pyrazolo[1,5-a]pyrimidine-3-carboxamide]",26
17,"CC1(C)Cc2cc(NC(=O)c3cnn4cccnc34)c(N3CCN(CC(F)F)CC3)cc2O1 [Example 8, N-[6-[4-(2,2-Difluoroethyl)piperazin-1-yl]-2,2-dimethyl-3H-benzofuran-5-yl]pyrazolo[1,5-a]pyrimidine-3-carboxamide]",2.3

# More lines, now with the values ahead:
row,Ki [nM],SMILES
1,260,"C[C@]1(O)COc2cc(N3CCOCC3)c(NC(=O)c3cnn4cccnc34)cc2C1 (single isomer, unassigned) [Example 27]"
2,27,"C[C@@]1(O)COc2cc(N3CCOCC3)c(NC(=O)c3cnn4cccnc34)cc2C1 (single isomer, unassigned) [Example 28]"
3,1.7,"C[C@]1(CO)Cc2cc(NC(=O)c3cnn4cccnc34)c(N3CCC(F)(CO)CC3)cc2O1 (single isomer, unassigned) [Example 44]"
4,1.9,"C[C@@]1(CO)Cc2cc(NC(=O)c3cnn4cccnc34)c(N3CCC(F)(CO)CC3)cc2O1 (single isomer, unassigned) [Example 45]"
5,540,"C[C@@]1(CO)Cc2cc(NC(=O)c3cnn4cccnc34)c(N3C[C@@H]4C[C@H]3CO4)cc2O1 (single isomer, unassigned) [Example 46]"
6,18,"C[C@]1(CO)Cc2cc(NC(=O)c3cnn4cc(Cl)cnc34)c(N3CCOCC3)cc2O1 (single isomer, unassigned) [Example 166]"
7,2.5,"C[C@@]1(CO)Cc2cc(NC(=O)c3cnn4cc(Cl)cnc34)c(N3CCN(CC(F)F)CC3)cc2O1 (single isomer, unassigned) [Example 169]"
8,94,"CC1(C)Cc2cc(NC(=O)c3cnn4cccnc34)c(N3CC[C@@]4(CCOC4)C3)cc2O1 (single isomer, unassigned) [Example 222]"
9,72,"CC1(C)Cc2cc(NC(=O)c3cnn4cccnc34)c(N3CC[C@]4(CCOC4)C3)cc2O1 (single isomer, unassigned) [Example 223]"
10,26,"O=C(Nc1cc2c(cc1N1CCOCC1)C(=O)N(C1CCOC1)C2)c1cnn2cccnc12 (single isomer, unassigned) [Example 276, N-(6-morpholino-1-oxo-2-(tetrahydrofuran-3-yl)isoindolin-5-yl)pyrazolo[1,5-a]pyrimidine-3-carboxamide]"
11,16,"O=C(Nc1cc2c(cc1N1CCOCC1)C(=O)N(CC1CCCCO1)C2)c1cnn2cccnc12 (single isomer, unassigned) [Example 277, N-(6-morpholino-1-oxo-2-((tetrahydro-2H-pyran-2-yl)methyl)isoindolin-5-yl)pyrazolo[1,5-a]pyrimidine-3-carboxamide]"
12,2,"CC(C)(O)[C@H](F)CN1Cc2cc(NC(=O)c3cnn4cccnc34)c(N3CCC([C@H](O)C(F)F)CC3)cc2C1=O (single isomer, unassigned) [Example 282]"
13,4.3,"O=C(Nc1cc2c(cc1N1CCC(F)(CO)CC1)O[C@](CO)(C(F)(F)F)C2)c1cnn2cccnc12 (single isomer, unassigned) [Example 318]"
14,12,"C[C@@]1(O)CCCN(c2cc3c(cc2NC(=O)c2cnn4cccnc24)C[C@@](C)(CO)O3)CC1 (single isomer, unassigned) [Example 331]"
15,8,"CC1(CO)Cc2cc(NC(=O)c3cnn4cccnc34)c(N3CCC(n4ccnc4)CC3)cc2O1 (single isomer, unassigned) [Example 344, N-(6-(4-(1H-imidazol-1-yl)piperidin-1-yl)-2-(hydroxymethyl)-2-methyl-2,3-dihydrobenzofuran-5-yl)pyrazolo[1,5-a]pyrimidine-3-carboxamide]"
16,110,"C[C@]1(O)COc2cc(N3CCC([C@@](C)(O)C(F)(F)F)CC3)c(NC(=O)c3cnn4cccnc34)cc2C1 (single isomer, unassigned) [Example 422]"
17,130,"Cn1cc(COc2cc3c(cc2NC(=O)c2cnn4cccnc24)C[C@@](C)(O)CO3)cn1 (single isomer, unassigned) [Example 430]"
18,10,"C[C@]1(CO)CCc2cc(NC(=O)c3cnn4cccnc34)c(N3CCOCC3)cc2O1 (single isomer, unassigned) [Example 432]"
19,10,"C[C@@]1(CO)CCc2cc(NC(=O)c3cnn4cccnc34)c(N3CCOCC3)cc2O1 (single isomer, unassigned) [Example 436]"
20,13,"CC(CC(C)(C)O)N1Cc2cc(NC(=O)c3cnn4cccnc34)c(N3CCOCC3)cc2C1=O (stereo in doubt) [Example 544, N-[2-[(1S)-3-hydroxy-1,3-dimethyl-butyl]-6-morpholino-1-oxo-isoindolin-5-yl]pyrazolo[1,5-a]pyrimidine-3-carboxamide]"
21,150,"CNC[C@H]1OC[C@H](c2cc3c(cc2NC(=O)c2cnn4cccnc24)CC(C)(C)O3)CO1 [Example 3, Trans-N-[2,2-dimethyl-6-[2-(methylaminomethyl)-1,3-dioxan-5-yl]-3H-benzofuran-5-yl]pyrazolo[1,5-a]pyrimidine-3-carboxamide]"
22,1.5,"CC1(C)Cc2cc(NC(=O)c3cnn4cccnc34)c(N3CCC(CO)CC3)cc2O1 [Example 4, N-(6-(4-(Hydroxymethyl)piperidin-1-yl)-2,2-dimethyl-2,3-dihydrobenzofuran-5-yl)pyrazolo[1,5-a]pyrimidine-3-carboxamide]"
23,54,"CC1(C)CNc2cc(NC(=O)c3cnn4cccnc34)c(N3CCOCC3)cc2O1 [Example 5, N-(2,2-Dimethyl-7-morpholino-3,4-dihydro-2H-benzo[b][1,4]oxazin-6-yl)pyrazolo[1,5-a]pyrimidine-3-carboxamide]"
24,3.9,"Cc1cnc2c(C(=O)Nc3cc4c(cc3N3CCC(CO)CC3)OCCN4)cnn2c1 [Example 7, N-(7-(4-(Hydroxymethyl)piperidin-1-yl)-3,4-dihydro-2H-benzo[b][1,4]oxazin-6-yl)-6-methylpyrazolo[1,5-a]pyrimidine-3-carboxamide]"
